Experimental findings from patent US20180221435A1, “ITCH TREATMENT USING A COMBINATION OF NEUROKININ-1, GASTRIN RELEASING PEPTIDE, AND GLUTAMATE RECEPTOR ANTAGONISTS” (The Regents of the University of California, priority 2013, published 2018) are described below.

In assay [1] the test system is superficial dorsal horn neurons. In words: In vivo single-unit recording, noxious pinch-evoked responses, spinal superfusion of antagonists. On the set-up: species or system mice. Conditions: pinch at end of 1 min superfusion. As to the method: Akiyama T et al., The Journal of neuroscience: the official journal of the Society for Neuroscience 29(20):6691-6699 (2009)]. Anesthesia was induced by sodium pentobarbital (60 mg/kg ip) and maintained by supplemental injections (10-20 mg/kg/hr). […] A tungsten microelectrode recorded single-unit activity in the lumbar spinal cord. A chemical search strategy [Akiyama T et al., Journal of neurophysiology 102(4):2176-2183 2009; […] Units were classified as wide dynamic range (WDR)-type if they responded in a graded manner to innocuous mechanical stimulation (brushing, cotton wisp) and noxious pinch, or nociceptive-specific (NS) if they responded to noxious pinch (and to the 55 mN von Frey stimulus) but not to the cotton wisp or brush stimuli. […] Akiyama T et al., The Journal of neuroscience: the official journal of the Society for Neuroscience 29(20):6691-6699 (2009)]. […] At the end of the antagonist superfusion, the noxious pinch stimulus was delivered again at the same site on the receptive field. Thirty minutes later, the noxious pinch stimulus was delivered in the same manner. Action potentials were recorded to a computer and counted using Chart software (AD Instruments, Colorado Springs Colo.) and Spike2 software (CED Instruments). […]

For assay [2], the system named is histamine-evoked scratching. Briefly: Histamine-evoked scratching behavior after intrathecal antagonists. Format: in vivo, mice. The conditions noted are these: intrathecal CNQX 20 nmol, 5 min before id histamine 271 nmol. From the text:
The fur on the rostral back was shaved and mice were habituated to the Plexiglas recording arena one week prior to testing. For intrathecal injections, either vehicle (saline), the GRP receptor antagonist RC-3095 (0.3 nmol; Sigma-Aldrich, St. Louis Mo.), the NK-1 antagonist L-733060 (22.7 nmol; Tocris Bioscience, Minneapolis, Minn.), the AMPA/kainate antagonist CNQX (20 nmol; Tocris Bioscience), a combination of CNQX (20 nmol) and L-733060 (22.7 nmol), or a combination of RC-3095 (0.3 nmol), CNQX (20 nmol) and L-733060 (22.7 nmol), was administered by lumbar puncture, followed 5 minutes later by id injection (10 μl) of either chloroquine (193 nmol; Sigma-Aldrich) or histamine (271 nmol; Sigma-Aldrich). Microinjections were made id in the nape of the neck using a 30 G needle attached to a Hamilton microsyringe by PE-50 tubing. Immediately after the id injection the mouse was placed into the arena and videotaped from above for 30 min. Generally 3-4 mice were injected and videotaped simultaneously. Immediately after commencing videotaping all investigators left the room.
Videotapes were reviewed by investigators blinded to the treatment, and the number of scratch bouts was counted at 5-minute intervals. […] Hind paw movements directed away from the injection site (e.g., ear-scratching) and grooming movements were not counted. […]

Assay [3] concerns superficial dorsal horn neurons. Briefly: In vivo single-unit recording, topical AITC-evoked firing, spinal superfusion of antagonists. Set-up: species or system mice. The protocol: Akiyama T et al., The Journal of neuroscience: the official journal of the Society for Neuroscience 29(20):6691-6699 (2009)]. Anesthesia was induced by sodium pentobarbital (60 mg/kg ip) and maintained by supplemental injections (10-20 mg/kg/hr). […] A tungsten microelectrode recorded single-unit activity in the lumbar spinal cord. A chemical search strategy [Akiyama T et al., Journal of neurophysiology 102(4):2176-2183 2009; […] Following mechanical stimulation, histamine (50 μg) was injected id within the same receptive field at a different location via a separate injection cannula. Following the id histamine injection, we tested the effects of antagonists for the receptors of NK1, GRP, or AMPA/kainate in the same manner as described above for chloroquine. […] Following the AITC application, we tested the effects of the NK-1 receptor antagonist, the AMPA/kainate receptor antagonist, or a combination of both antagonists in the same manner as described above for chloroquine. Action potentials were recorded to a computer and counted using Chart software (AD Instruments, Colorado Springs Colo.) and Spike2 software (CED Instruments). […] Mean peak responses elicited by noxious pinch were compared by one way repeated-measures ANOVA followed by post-hoc Bonferroni test, with p<0.05 set as significant. At the end of each experiment, an electrolytic lesion was made at the spinal cord recording site.

Molecules are shown by their SMILES. “Also recorded” adds a separate entry of the source.

Turning to `N#Cc1cc2[nH]c(=O)c(=O)[nH]c2cc1[N+](=O)[O-]` [CNQX], the “noxious pinch-evoked response, effect of spinal superfusion” value in assay [1] is listed as “significantly reduced”. In assay [2], the “histamine-evoked scratching (scratch bouts/30 minutes)” value is “significantly decreased; also recorded: significantly reduced; also recorded: prevented histamine-evoked scratching behavior”. Further, the “AITC-evoked firing, effect of spinal superfusion” value in assay [3] (topical AITC 75%) is “significantly reduced”. Also, the “Percentages of dorsal horn units that exhibited a decrease of 70% or more in firing rate following spinal superfusion of antagonists” value in assay [3] (topical AITC-evoked firing, superfusion 1 min, L-733060 200 μM, CNQX 100 μM) is given as 62% (8/15).
